Common to all, as to assay type: biochemical
The target of one experiment is T1, human GST-CLK1 (129-end) (Homo sapiens, UniProt P49759).
T1 construct: purified human GST-CLK1 (129-end, Signalchem) enzyme; GST; purchased Signalchem
The experiment can be described thus: GST-CLK1 enzyme inhibition, ADP-Glo kinase assay. The note with it: ATP 10 uM. Put shortly: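 ADP formation was read by ADP-Glo luminescence after 1 h at 25° C with 3 ng human GST-CLK1 (129-end), substrate and 10 uM ATP in Tris pH 7.4 buffer containing MgCl2, BSA and DTT. Inhibition relative to untreated solvent control gave IC50 (nM), run in triplicate.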
(In general: ADP-Glo turns the ADP formed in a reaction into a luminescent signal.)

Experiment [1] has as its target T2, human GST-DYRK1A (full length) (Homo sapiens, UniProt Q13627).
T2 construct: purified human GST-DYRK1A (full length, Thermo scientifics) enzyme; GST; purchased Thermo scientifics
The experiment can be described thus: GST-DYRK1A enzyme inhibition, ADP-Glo kinase assay. The note with it: read-out: DYRK1 IC50. Put shortly:
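ADP-Glo luminescence quantified kinase activity after a 1 h, 25° C reaction of 10 ng full-length GST-tagged human DYRK1A, substrate and 10 uM ATP in Tris-HCl buffer pH 7.4 with MgCl2, BSA and DTT. Triplicate IC50 values (nM) calculated relative to untreated solvent control.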

The target in a further experiment is LRRK2 (G2019S) (Homo sapiens, UniProt Q5S007, G2019S). In words: LRRK2 G2019S enzyme inhibition, ADP-Glo kinase assay. The arrangement: purchased SignalChem L10-12GG. On the procedure: In order to evaluate the inhibitory activity of the compounds according to the present invention on LRRK2, LRRK2 (G2019S), DYRK1, CLK1 and TTK kinases, the following experiment was performed.
Example compounds were reacted with the purified human LRRK2 G2019S (L10-12GG, SignalChem) enzyme to evaluate the enzyme inhibitory ability as follows. The reaction buffer was used as the composition of 40 mM Tris-HCl pH7.4, 20 mM MgCl2, 0.5 mg/ml BSA and 50 μM DTT, and the reaction of all test materials was performed on the reaction buffer. The compound was diluted with 10 mM DMSO stock in 12 steps by a serial dilution method, and the enzyme activity was measured at the final compound concentrations of 50, 10, 2, 0.4, 0.08, 0.016, 0.0032, 0.00064, 0.000128, 0.0000256, 0.00000512 and 0.000001024 μM. In the test, the human LRRK2 G2019S (16 ng) enzyme was reacted with the purified ATP (25 μM) and an enzyme substrate (0.2 μg) at 25° C. for 2 hours, and then the enzyme activity was identified using the in vitro ADP-Glo™ kinase assay (promega). The enzyme activity reaction liquid, an ADP-Glo reaction liquid and an enzyme potency detection solution were reacted in a ratio of 2:2:1, and the degree of inhibition of enzyme activity was measured by Luminescence. The degree of inhibition of enzyme activity according to the treatment concentrations of the respective compounds was calculated based on the fluorescence of the enzyme activity of a solvent control group that was not treated with the compound, where the concentration of each compound to inhibit enzyme activity inhibition by 50% was determined as an IC50 (nM) value and obtained using Prism (Version 5.01, GraphPad) software.
In the table below, the following designations were used for the evaluation of enzyme inhibitory ability.

SMILES strings stand for the structures.

T1 sequence (P49759 129-484 limits assumed): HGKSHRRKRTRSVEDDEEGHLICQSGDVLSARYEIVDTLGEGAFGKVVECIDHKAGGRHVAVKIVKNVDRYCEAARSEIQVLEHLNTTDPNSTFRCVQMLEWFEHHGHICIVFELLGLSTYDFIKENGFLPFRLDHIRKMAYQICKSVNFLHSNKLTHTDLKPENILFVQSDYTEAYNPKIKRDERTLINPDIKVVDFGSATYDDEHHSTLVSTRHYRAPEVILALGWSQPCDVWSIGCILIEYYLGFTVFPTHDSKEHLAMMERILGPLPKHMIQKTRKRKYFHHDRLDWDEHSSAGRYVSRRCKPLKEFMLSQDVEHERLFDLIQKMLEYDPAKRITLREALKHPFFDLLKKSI
LRRK2 (G2019S), sequence (Q5S007 970-2527 G2019S limits assumed): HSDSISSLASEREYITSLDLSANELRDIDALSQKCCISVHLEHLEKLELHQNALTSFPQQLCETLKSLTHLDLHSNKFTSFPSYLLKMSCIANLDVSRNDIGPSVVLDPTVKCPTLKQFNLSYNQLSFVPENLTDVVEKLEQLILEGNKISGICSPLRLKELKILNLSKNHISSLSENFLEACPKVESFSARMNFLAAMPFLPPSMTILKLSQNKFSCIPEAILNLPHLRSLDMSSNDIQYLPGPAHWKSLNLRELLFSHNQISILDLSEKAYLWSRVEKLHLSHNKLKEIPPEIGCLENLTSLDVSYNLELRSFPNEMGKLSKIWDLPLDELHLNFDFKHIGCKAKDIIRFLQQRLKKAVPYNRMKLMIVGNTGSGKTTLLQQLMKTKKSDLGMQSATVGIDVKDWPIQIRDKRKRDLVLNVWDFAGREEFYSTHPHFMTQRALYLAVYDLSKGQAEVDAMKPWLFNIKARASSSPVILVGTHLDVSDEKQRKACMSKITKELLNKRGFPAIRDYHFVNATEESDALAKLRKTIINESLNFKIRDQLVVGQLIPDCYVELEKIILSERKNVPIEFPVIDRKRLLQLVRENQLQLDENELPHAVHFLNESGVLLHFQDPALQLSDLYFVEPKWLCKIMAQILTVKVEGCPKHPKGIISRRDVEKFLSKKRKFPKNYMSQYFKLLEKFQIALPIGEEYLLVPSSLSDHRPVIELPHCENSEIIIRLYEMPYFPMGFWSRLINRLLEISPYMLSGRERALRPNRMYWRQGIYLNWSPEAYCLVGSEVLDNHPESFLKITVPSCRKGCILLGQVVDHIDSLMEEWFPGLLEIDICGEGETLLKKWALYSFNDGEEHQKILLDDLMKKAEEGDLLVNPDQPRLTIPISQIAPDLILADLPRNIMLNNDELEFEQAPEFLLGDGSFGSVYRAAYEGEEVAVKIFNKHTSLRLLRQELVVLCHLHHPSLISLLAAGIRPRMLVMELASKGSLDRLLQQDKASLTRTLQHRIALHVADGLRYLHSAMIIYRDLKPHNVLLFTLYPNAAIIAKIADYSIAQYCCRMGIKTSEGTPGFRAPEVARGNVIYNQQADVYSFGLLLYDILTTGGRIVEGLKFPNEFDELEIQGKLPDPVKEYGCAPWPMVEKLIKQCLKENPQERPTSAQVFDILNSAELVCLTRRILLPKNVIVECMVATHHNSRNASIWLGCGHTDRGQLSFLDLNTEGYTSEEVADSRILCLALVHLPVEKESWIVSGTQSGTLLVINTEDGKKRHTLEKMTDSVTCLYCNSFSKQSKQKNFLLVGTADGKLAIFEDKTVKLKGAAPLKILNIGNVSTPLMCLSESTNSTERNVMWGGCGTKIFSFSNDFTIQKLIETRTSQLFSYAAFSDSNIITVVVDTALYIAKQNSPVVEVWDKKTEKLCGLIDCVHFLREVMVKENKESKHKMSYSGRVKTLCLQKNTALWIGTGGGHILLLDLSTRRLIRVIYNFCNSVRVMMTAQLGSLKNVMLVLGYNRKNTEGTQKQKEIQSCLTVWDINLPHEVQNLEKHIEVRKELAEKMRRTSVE

One may read the IC50 as the midpoint of a concentration-inhibition curve. Turning to `CCNc1cc(Nc2ccc(P3(=O)CCN(Cc4ccc(OC)cc4OC)CC3)cn2)nc2[nH]cc(C(F)(F)F)c12` [Example 267, 1-(2,4-dimethoxybenzy 1)-4-(6-((4-(ethylamino)-3-(trifluoromethyl)-1H-pyrrolo[2,3-b]pyridin-6-yl)amino)pyridin-3-yl)-1,4-azaphosphinane 4-oxide], the IC50 (against human GST-CLK1 (129-end); in experiment [1]; on LRRK2 (G2019S)) was less than 100 nM each time.

On to `COc1cc(S(=O)(=O)N2CCOCC2)ccc1Nc1cc(NC(C)C)c2cc[nH]c2n1` [Example 13, N^4-isopropyl-N^6-(2-methoxy-4-(morpholinosulfonyl)phenyl)-1H-pyrrolo[2,3-b]pyridine-4,6-diamine], for which the concentration for half-maximal inhibition (IC50) (on human GST-CLK1 (129-end); in experiment [1]; against LRRK2 (G2019S)) was 301 to 1000 nM in each case.

For `CCNc1cc(Nc2ccc(C(=O)N3CCC4(CC3)CC4)c3c2OCC3)nc2[nH]cc(C(F)(F)F)c12` [Example 256, (7-((4-(ethylamino)-3-(trifluoromethyl)-1H-pyrrolo[2,3-b]pyridin-6-yl)amino)-2,3-dihydrobenzofuran-4-yl)(6-azaspiro[2.5]octan-6-yl)methanone], the IC50 against human GST-CLK1 (129-end) is 101 to 300 nM; in experiment [1] it was 301 to 1000 nM; against LRRK2 (G2019S), 301 to 1000 nM.

`COc1cc(S(=O)(=O)N2CCC(N3CCOCC3)CC2)ccc1Nc1cc(NC2CCCCC2)c2cc[nH]c2n1` [Example 23, N^4-cyclohexyl-N^6-(2-methoxy-4-((4-morpholinopiperidin-1-yl)sulfonyl)phenyl)-1H-pyrrolo[2,3-b]pyridine-4,6-diamine]: the half-maximal inhibitory concentration (IC50) (on human GST-CLK1 (129-end); in experiment [1]; at LRRK2 (G2019S)) was 301 to 1000 nM in each case.

For the compound `COc1cc(S(=O)(=O)N2CCOCC2)ccc1Nc1cc(NC2CC2)c2c(Cl)c[nH]c2n1` [Example 68, 3-chloro-N^4-cyclopropyl-N^6-(2-methoxy-4-(morpholinosulfonyl)phenyl)-1H-pyrrolo[2,3-b]pyridine-4,6-diamine], the IC50 (on human GST-CLK1 (129-end); in experiment [1]; at LRRK2 (G2019S)) was 301 to 1000 nM throughout.

`CS(=O)(=O)CCNc1cc(Nc2ccc(C(=O)N3CCOCC3)c3c2OCCO3)nc2[nH]ccc12` [Example 9, (8-((4-((2-(methylsulfonyl)ethyl)amino)-1H-pyrrolo[2,3-b]pyridin-6-yl)amino)-2,3-dihydrobenzo[b] [1,4]dioxin-5-yl)(morpholino) methanone]: the half-maximal inhibitory concentration (IC50) is 301 to 1000 nM against human GST-CLK1 (129-end), 301 to 1000 nM in experiment [1] and less than 100 nM against LRRK2 (G2019S).

On to `CNc1cc(Nc2ccc(S(C)(=O)=O)cc2OC)nc2[nH]cc(Cl)c12` [Example 80, 3-chloro-N^6-(2-methoxy-4-(methylsulfonyl)phenyl)-N^4-methyl-1H-pyrrolo[2,3-b]pyridine-4,6-diamine], for which the values for the 50% inhibitory concentration (IC50) (against human GST-CLK1 (129-end); in experiment [1]; against LRRK2 (G2019S)) were 301 to 1000 nM, 301 to 1000 nM and less than 100 nM, respectively.

Turning to `CCNc1cc(Nc2ccc(C(=O)N3CCC(N4C[C@@H](C)O[C@@H](C)C4)CC3)c3c2OCC3)nc2[nH]cc(C(F)(F)F)c12` [Example 263, (4-((2S,6R)-2,6-dimethylmorpholino)piperidin-1-yl)(7-((4-(ethylamino)-3-(trifluoromethyl)-1H-pyrrolo[2,3-b]pyridin-6-yl)amino)-2,3-dihydrobenzofuran-4-yl)methanone], the concentration for half-maximal inhibition (IC50) (against human GST-CLK1 (129-end); in experiment [1]; against LRRK2 (G2019S)) was less than 100 nM throughout.

As to `CCNc1cc(Nc2ccc(C(=O)N3CCN(C4CCCC4)CC3)c3c2OCC3)nc2[nH]cc(C(F)(F)F)c12` [Example 251, (4-cyclopentylpipe razin-1-yl)(7-((4-(ethylamino)-3-(trifluoromethyl)-1H-pyrrolo[2,3-b]pyridin-6-yl)amino)-2,3-dihydrobenzofuran-4-yl)methanone], the results for the half-maximal inhibitory concentration (IC50) (against human GST-CLK1 (129-end); in experiment [1]; at LRRK2 (G2019S)) were less than 100 nM, 101 to 300 nM and less than 100 nM, respectively.

For the compound `CCCNc1cc(Nc2ccc(S(=O)(=O)N3CCOCC3)cc2OC)nc2[nH]cc(Cl)c12` [Example 66, 3-chloro-N^6-(2-methoxy-4-(morpholinosulfonyl)phenyl)-N^4-propyl-1H-pyrrolo[2,3-b]pyridine-4,6-diamine], the IC50 (on human GST-CLK1 (129-end); in experiment [1]; on LRRK2 (G2019S)) was 301 to 1000 nM in each case.

Take `CNc1cc(Nc2ccc(S(=O)(=O)N3CCC(N4CCOCC4)CC3)cc2OC)nc2[nH]ccc12` [Example 18, N^6-(2-methoxy-4-((4-morpholinopiperidin-1-yl)sulfonyl)phenyl)-N^4-methyl-1H-pyrrolo[2,3-b]pyridine-4,6-diamine]: the IC50 against human GST-CLK1 (129-end) is 301 to 1000 nM; in experiment [1] it was 301 to 1000 nM; on LRRK2 (G2019S) it was less than 100 nM.

For `CNc1cc(Nc2ccc(C(=O)N3CCOCC3)c3c2OCCO3)nc2[nH]cc(Cl)c12` [Example 56, (8-((3-chloro-4-(methylamino)-1H-pyrrolo[2,3-b]pyridin-6-yl)amino)-2,3-dihydrobenzo[b] [1,4]dioxin-5-yl)(morpholino) methanone 2,2,2-trifluoroacetate], the concentration for half-maximal inhibition (IC50) on human GST-CLK1 (129-end) was 301 to 1000 nM; in experiment [1] it was 301 to 1000 nM; on LRRK2 (G2019S), less than 100 nM.

`C=CCNc1cc(Nc2ccc(C(=O)N3CC[C@H](N4CCOCC4)C3)c3c2OCC3)nc2[nH]cc(C(F)(F)F)c12` [Example 262, (S)-(7-((4-(allylamino)-3-(trifluoromethyl)-1H-pyrrolo[2,3-b]pyridin-6-yl)amino)-2,3-dihydrobenzofuran-4-yl)(3-morpholinopyrrolidin-1-yl)methanone]: the figures for the IC50 (at human GST-CLK1 (129-end); in experiment [1]; against LRRK2 (G2019S)) were less than 100 nM, 101 to 300 nM and less than 100 nM, respectively.

For the compound `CCNc1cc(Nc2ccc(C(=O)N3CCO[C@H](C)C3)c3c2OCC3)nc2[nH]cc(C(F)(F)F)c12` [Example 260, (R)-(7-((4-(ethylamino)-3-(trifluoromethyl)-1H-pyrrolo[2,3-b]pyridin-6-yl)amino)-2,3-dihydrobenzofuran-4-yl)(2-methylmorpholino) methanone], the half-inhibitory concentration (IC50) (against human GST-CLK1 (129-end); in experiment [1]; against LRRK2 (G2019S)) was less than 100 nM in each case.

Turning to `COc1cc(S(=O)(=O)N2CCC(N3CCOCC3)CC2)ccc1Nc1cc(NC2CC2)c2c(Cl)c[nH]c2n1` [Example 76, 3-chloro-N^4-cyclopropyl-N^6-(2-methoxy-4-((morpholinopiperidin-1-yl)sulfonyl)phenyl)-1H-pyrrolo[2,3-b]pyridine-4,6-diamine], the half-maximal inhibitory concentration (IC50) at human GST-CLK1 (129-end) is 301 to 1000 nM; in experiment [1], 301 to 1000 nM; on LRRK2 (G2019S), less than 100 nM.

As to `C=CCNc1cc(Nc2ccc(C(=O)N3CC[C@@H](N4CCOCC4)C3)c3c2OCC3)nc2[nH]cc(C(F)(F)F)c12` [Example 261, (R)-(7-((4-(allylamino)-3-(trifluoromethyl)-1H-pyrrolo[2,3-b]pyridin-6-yl)amino)-2,3-dihydrobenzofuran-4-yl)(3-morpholinopyrrolidin-1-yl)methanone], the figures for the IC50 (against human GST-CLK1 (129-end); in experiment [1]; at LRRK2 (G2019S)) were less than 100 nM, 101 to 300 nM and less than 100 nM, respectively.

For the compound `CCNc1cc(Nc2ccc(C(=O)N3OCC[C@H]3c3cc(F)cc(F)c3)c3c2OCC3)nc2[nH]cc(C(F)(F)F)c12` [Example 246, (S)-(3-(3,5-difluorophenyl)isoxazolidin-2-yl)(7-((4-(ethylamino)-3-(trifluoromethyl)-1H-pyrrolo[2,3-b]pyridin-6-yl)amino)-2,3-dihydrobenzofuran-4-yl)methanone], the IC50 (at human GST-CLK1 (129-end); in experiment [1]; on LRRK2 (G2019S)) was 301 to 1000 nM in each case.

As for `COc1cc(S(=O)(=O)N2CCC(N3CCOCC3)CC2)ccc1Nc1cc(NCC(C)C)c2cc[nH]c2n1` [Example 21, N^4-isobutyl-N^6-(2-methoxy-4-((4-morpholinopiperidin-1-yl)sulfonyl)phenyl)-1H-pyrrolo[2,3-b]pyridine-4,6-diamine], the IC50 on human GST-CLK1 (129-end) is 301 to 1000 nM; in experiment [1], 301 to 1000 nM; at LRRK2 (G2019S), less than 100 nM.

On to `COc1cc(S(=O)(=O)N2CCOCC2)ccc1Nc1cc(NC(C)C)c2c(Cl)c[nH]c2n1` [Example 67, 3-chloro-N^4-isopropyl-N^6-(2-methoxy-4-(morpholinosulfonyl)phenyl)-1H-pyrrolo[2,3-b]pyridine-4,6-diamine], for which the IC50 (against human GST-CLK1 (129-end); in experiment [1]; on LRRK2 (G2019S)) was 301 to 1000 nM in each case.

These data come from patent US12240844B2 (Voronoi, Inc., priority 2019, dated 2025).
